Laboratory results taken from PMC2838427 (British journal of haematology, 2009).
Values joined by “and” are separate entries in the source; they are usually repeats but may differ in a detail not shown here. Equal entries are not always repeated.

Assays:
[1] = patients with chronic myelogenous leukemia; ref Picard, et al 2007; cited from earlier work
[2] = test system: ABCB1 gene expression in tumor biopsy samples; details: in vivo
[3] = test system: ABCB1 gene expression in PBMCs; details: human, in vivo
fetal hemoglobin (HbF) = experiment: Blood fetal hemoglobin; type: in vivo, patients
[4] = test system: histone H3 acetylation in peripheral blood mononuclear cells (PBMCs); details: human, in vivo

Cc1ccc(NC(=O)c2ccc(CN3CCN(C)CC3)cc2)cc1Nc1nccc(-c2cccnc2)n1 [imatinib]
trough plasma threshold associated with response [1]: 1002 ng/mL

C/C=C1\NC(=O)[C@H]2CSSCC/C=C/[C@H](CC(=O)N[C@H](C(C)C)C(=O)N2)OC(=O)[C@H](C(C)C)NC1=O [romidepsin, (E)-(1S,4S,10S,21R)-7-[(Z)-Ethylidene]-4,21-diisopropyl-2-oxa-12,13-dithi a-5,8,20,23-tetraazabicyclo[8,7,6]-tricos-16-ene-3,6,9,22-pentanone]
fold increase in ABCB1 in a biopsy sample, one patient [2]: greater than 30 | fold increase in ABCB1 in biopsy samples, all other values [2]: below 8 | increase in median ABCB1 level on-study to off study [2]: 50% | pre/post sample sets with greater than 50% increase in ABCB1 expression level [2]: Fourteen | pre/post samples with two-fold or greater increase in ABCB1 level [2]: eight | median fold increase in ABCB1 mRNA expression [3]: 2.74 and 1.78 | patients having ABCB1 levels 2-fold or higher than baseline [3]: 56% and 37% | samples again showing less than 2-fold ABCB1 increase at 24 h [3]: 71% | median time to peak induction of HbF (fetal hemoglobin (HbF); 61 patients): 99 days | range of time to peak induction of HbF (fetal hemoglobin (HbF); 61 patients): 27 to 295 days | HbF fold change, range (fetal hemoglobin (HbF); CR/PR): 1.69–23.00 | patients with fold increase 2 ≤ x < 4 in hemoglobin F, number (%) (fetal hemoglobin (HbF); Final vs baseline, n=49): 9 (18%) | patients with fold increase x < 2 in hemoglobin F, number (%) (fetal hemoglobin (HbF); Final vs baseline, n=49): 20 (41%) | patients with fold increase x ≥ 4 in hemoglobin F, number (%) (fetal hemoglobin (HbF); Final vs baseline, n=49): 20 (41 %) | patients with fold increase 2 ≤ x < 4 in hemoglobin F, number (%) (fetal hemoglobin (HbF); Peak vs baseline, n=52): 7 (13%) | patients with fold increase x < 2 in hemoglobin F, number (%) (fetal hemoglobin (HbF); Peak vs baseline, n=52): 14 (27%) | patients with fold increase x ≥ 4 in hemoglobin F, number (%) (fetal hemoglobin (HbF); Peak vs baseline, n=52): 31 (60%) | HbF fold change, range (fetal hemoglobin (HbF); SD/PD): 0.95–11.50 | patients with > 4-fold rise in HbF levels (fetal hemoglobin (HbF); peak vs baseline): 60% | patients with two-fold or greater induction of fetal hemoglobin (fetal hemoglobin (HbF); peak vs baseline, zero baselines reassigned 0.2%): 73% | patients with at least a 2-fold increase in global histone acetylation [4]: 73% | patients with fold increase x < 2 in histone acetylation, number (%) [4]: 21 (57%) and 11 (61%)
